Test system: Male Sprague Dawley rats
Experiment: Hypocalcaemic activity in rats (total serum calcium after i.v. injection)
Type: in vivo, rat
Details: fasted rats, blood sampled one hour after dosing, VEHICLE 10.49 + 0.6
Protocol: The hypocalcaemic activity of compounds (I) can be determined as reported for example in J. Endocrinology, 33, 469 (1965).
Male Sprague Dawley rats, about 4 weeks old, were kept under fasting conditions for 24 hours. The compounds were dissolved with BSA buffer (0.1% bovine serum albumin on 0.1M acetate buffer pH 4.5) and injected by the i.v. route into the lateral tail vein at doses of 3-10-30-100 ng/Kg. One hour after the dosing blood was sampled from the tail or neck vessels, then the serum samples obtained.
The serum was diluted with 0.1% lanthanium chloride solution and the concentration of total calcium was determined by Atomic Absorption Spectrophotometry.

CC(C)C[C@H](NC(=O)[C@H](CCCCN)NC(=O)CNC(=O)[C@H](CC(C)C)NC(=O)[C@@H](NC(=O)[C@@H]1CC#CCCC(=O)N[C@@H](CO)C(=O)N[C@@H](CC(N)=O)C(=O)N[C@@H](CC(C)C)C(=O)N[C@@H](CO)C(=O)N[C@@H]([C@@H](C)O)C(=O)N1)C(C)C)C(=O)N[C@@H](CO)C(=O)N[C@@H](CCC(N)=O)C(=O)N[C@@H](CCC(=O)O)C(=O)N[C@@H](CC(C)C)C(=O)N[C@@H](Cc1c[nH]cn1)C(=O)N[C@@H](CCCCN)C(=O)N[C@@H](CC(C)C)C(=O)N[C@@H](CCC(N)=O)C(=O)N[C@H](C(=O)N[C@@H](Cc1ccc(O)cc1)C(=O)N1CCC[C@H]1C(=O)N[C@@H](CCCNC(=N)N)C(=O)N[C@H](C(=O)N[C@@H](C)C(=O)N[C@H](C(=O)NCC(=O)N[C@@H](C)C(=O)NCC(=O)N[C@H](C(=O)N1CCC[C@H]1C(N)=O)[C@@H](C)O)C(C)C)[C@@H](C)O)[C@@H](C)O [Example 4]
Total serum calcium; mean + S.D. (Dose 3 ng/kg i.v. (lateral tail vein)): 10.09±0.1 mg/100 ml | Total serum calcium; mean + S.D. (Dose 10 ng/kg i.v. (lateral tail vein)): 8.85±0.25 mg/100 ml | Total serum calcium; mean + S.D. (Dose 30 ng/kg i.v. (lateral tail vein)): 7.92±0.15 mg/100 ml | Total serum calcium; mean + S.D. (Dose 100 ng/kg i.v. (lateral tail vein)): 7.66±0.18 mg/100 ml
